For 62 compounds, IC50 results are on record in patent US20060252807A1, “Novel ortho-terphenyl inhibitors of p38 kinase and methods of treating inflammatory disorders” (Kalypsys, Inc., priority 2005, published 2006).

Structures are written as SMILES.

For the first assay, the target named is T1, active p38 alpha enzyme (Upstate Biotechnology) (Homo sapiens, UniProt Q16539).
T1 construct: purchased Upstate Biotechnology
T1 sequence (Q16539 whole entry): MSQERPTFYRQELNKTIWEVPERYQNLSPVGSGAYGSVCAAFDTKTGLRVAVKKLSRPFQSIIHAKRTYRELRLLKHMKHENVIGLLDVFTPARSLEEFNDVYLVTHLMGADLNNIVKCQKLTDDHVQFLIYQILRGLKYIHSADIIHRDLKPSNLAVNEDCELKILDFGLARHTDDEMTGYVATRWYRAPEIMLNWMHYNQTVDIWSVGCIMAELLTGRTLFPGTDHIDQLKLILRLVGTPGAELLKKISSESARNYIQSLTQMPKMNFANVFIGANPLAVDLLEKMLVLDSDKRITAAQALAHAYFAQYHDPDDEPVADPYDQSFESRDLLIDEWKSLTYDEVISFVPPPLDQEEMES
As to the kind of experiment: p38α biochemical assay (ATP turnover, luminescent detection, Cambrex PKlight). Particulars: p38α biochemical assay, Table 1 Biological Activity. The method in brief: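 Luminescent ATP-depletion readout measures total ATP turnover by p38α phosphorylating whole MapkapK2 protein. ATP 1.4 uM final; 30C, 2 h. Compounds delivered from DMSO.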
For `CC(C)NC(=O)c1csc(-c2oc(CNC(=O)CCc3cccc(C(F)(F)F)c3)nc2-c2ccc(F)cc2)n1` [Example 300], the 50% inhibitory concentration (IC50) (commonly the midpoint of a concentration-inhibition curve) was at most 1 µM.

Consider `COc1cc(C(=O)NCc2onc(-c3ccc(F)cc3)c2-c2nc(C(=O)NC(C)C)cs2)c([N+](=O)[O-])cc1OC` [Example 782], for which the IC50 is above 1 µM.

In turn, `COc1cc(C(=O)NCc2nc(-c3ccc(F)cc3)c(-c3nc(C(=O)NC(C)C)cs3)o2)cc(Cl)n1` [Example 241] gave a half-inhibitory concentration (IC50) above 1 µM.

As to `CC(C)NC(=O)c1csc(-c2oc(CN3CCN(C(=O)/C=C/c4ccccc4F)CC3)nc2-c2ccc(F)cc2)n1` [Example 415], the IC50 is above 1 µM.

In the case of `CC(C)NC(=O)c1csc(-c2c(-c3ccc(F)cc3)noc2CNC(=O)c2cnc(O)c(Cl)c2)n1` [Example 673], the half-maximal inhibitory concentration (IC50) is above 1 µM.

`CC(C)NC(=O)c1csc(-c2oc(CNC(=O)c3cccnc3Cl)nc2-c2ccc(F)cc2)n1` [Example 153] registered a half-inhibitory concentration (IC50) of at most 1 µM.

Consider `CC(C)NC(=O)c1csc(-c2c(-c3ccc(F)cc3)noc2CNC(=O)c2cccc([N+](=O)[O-])c2)n1` [Example 660], for which the IC50 was above 1 µM.

`CC(C)NC(=O)c1csc(-c2c(-c3ccc(F)cc3)noc2CNC(=O)c2c(F)cccc2F)n1` [Example 632] displayed an IC50 above 1 µM.

Compound `CC(C)NC(=O)c1csc(-c2c(-c3ccc(F)cc3)noc2CNC(=O)c2cc(F)c(Cl)cc2F)n1` [Example 734] came in with a 50% inhibitory concentration (IC50) above 1 µM.

The compound `Cc1ccc(C)c(C(=O)N2CCN(Cc3nc(-c4ccc(F)cc4)c(-c4nc(C(=O)NC(C)C)cs4)o3)CC2)c1` [Example 374] displayed an IC50 above 1 µM.

`CC(C)NC(=O)c1csc(-c2c(-c3ccc(F)cc3)noc2CNC(=O)CCc2cccc(Br)c2)n1` [Example 785] yielded an IC50 above 1 µM.

`CC(C)NC(=O)c1csc(-c2c(-c3ccc(F)cc3)noc2CNC(=O)C(Cl)(Cl)Cl)n1` [Example 640] returned a 50% inhibitory concentration (IC50) above 1 µM.

Compound `CC(C)NC(=O)c1csc(-c2c(-c3ccc(F)cc3)noc2CNC(=O)c2cncc(Br)c2)n1` [Example 752] came in with a half-inhibitory concentration (IC50) above 1 µM.

Take `CC(C)NC(=O)c1csc(-c2c(-c3ccc(F)cc3)noc2CNC(=O)c2ccc(-c3ccc(O)cc3)cc2)n1` [Example 766]: the half-inhibitory concentration (IC50) was above 1 µM.

In the case of `Cc1ccccc1CCC(=O)NCc1nc(-c2ccc(F)cc2)c(-c2nc(C(=O)NC(C)C)cs2)o1` [Example 172], the half-maximal inhibitory concentration (IC50) was above 1 µM.

Consider `CCC(C(=O)NCc1onc(-c2ccc(F)cc2)c1-c1nc(C(=O)NC(C)C)cs1)c1ccccc1` (centres unmarked) [Example 649], for which the IC50 is above 1 µM.

The compound `COc1cc(OC)cc(C(=O)NCc2nc(-c3ccc(F)cc3)c(-c3nc(C(=O)NC(C)C)cs3)o2)c1` [Example 227] yielded a concentration for half-maximal inhibition (IC50) above 1 µM.

Compound `Cc1cc(C)cc(C(=O)NCc2onc(-c3ccc(F)cc3)c2-c2nc(C(=O)NC(C)C)cs2)c1` [Example 613] registered an IC50 above 1 µM.

`CC(C)NC(=O)c1csc(-c2c(-c3ccc(F)cc3)noc2CNC(=O)c2cc(F)cc(F)c2)n1` [Example 635] registered a half-inhibitory concentration (IC50) above 1 µM.

In turn, `CC(C)NC(=O)c1csc(-c2oc(CNC(=O)c3ccc(Cl)c([N+](=O)[O-])c3)nc2-c2ccc(F)cc2)n1` [Example 274] had a half-inhibitory concentration (IC50) above 1 µM.

`CC(C)NC(=O)c1csc(-c2c(-c3ccc(F)cc3)noc2CNC(=O)C(O)CCl)n1` (centres unmarked) [Example 590] had a concentration for half-maximal inhibition (IC50) of at most 1 µM.

`CC(C)NC(=O)c1csc(-c2oc(CN3CCN(C(=O)c4c5ccccc5cc5ccccc45)CC3)nc2-c2ccc(F)cc2)n1` [Example 540] gave a half-inhibitory concentration (IC50) above 1 µM.

Turning to `CC(=O)Oc1ccccc1C(=O)N1CCN(Cc2nc(-c3ccc(F)cc3)c(-c3nc(C(=O)NC(C)C)cs3)o2)CC1` [Example 453], the IC50 was above 1 µM.

Compound `Cc1cccc(C(=O)N2CCN(Cc3nc(-c4ccc(F)cc4)c(-c4nc(C(=O)NC(C)C)cs4)o3)CC2)c1` [Example 358] yielded an IC50 above 1 µM.

The same assay, now with this note: p38α kinase; Table 1 Biological Activity.
In turn, `O=C(NCCN1CCCC1)c1csc(-c2c(-c3ccc(F)cc3)n[nH]c2C2CCNCC2)n1` [Example 2070] registered an IC50 above 1 µM.

On to `Cc1nc(-c2ccc(F)cc2)c(-c2nc(C(=O)NCCc3ccccc3)cs2)s1` [Example 1754], for which the 50% inhibitory concentration (IC50) was at most 1 µM.

The compound `CC(C)NC(=O)c1csc(-c2c(-c3ccc(F)cc3)c(=O)[nH]n2C)n1` [Example 2182, 2-|4-(4-Fluoro-phenyl)-2-methyl-5-oxo-2,5-dihydro-1H-pyrazol-3-yl|-thiazole-4-carboxylic acid isopropyl amide] registered a half-inhibitory concentration (IC50) above 1 µM.

Take `CC(C)NC(=O)c1csc(-c2c(-c3ccc(F)cc3)noc2CNCCC#N)n1` [Example 1390]: the half-maximal inhibitory concentration (IC50) is above 1 µM.

In turn, `COc1ccc(N2CCN(Cc3onc(-c4ccc(F)cc4)c3-c3nc(C(=O)NC(C)C)cs3)CC2)cc1` [Example 1595] returned an IC50 above 1 µM.

`CC(C)NC(=O)c1csc(-c2c(-c3ccc(F)cc3)n[nH]c2C2CCN(C(=O)c3ccc(F)c([N+](=O)[O-])c3)CC2)n1` [Example 951] yielded a 50% inhibitory concentration (IC50) above 1 µM.

The compound `COc1ccc(NCc2nc(-c3ccc(F)cc3)c(-c3nc(C(=O)NC(C)C)cs3)o2)c(C)c1` [Example 1340] gave a concentration for half-maximal inhibition (IC50) above 1 µM.

`CC(C)NC(=O)c1csc(-c2c(-c3ccc(F)cc3)n[nH]c2C2CCN(C(=O)c3ccc(Oc4ccccc4)cc3)CC2)n1` [Example 1004]: the IC50 was above 1 µM.

Regarding `Cc1cc(C)cc(NCc2onc(-c3ccc(F)cc3)c2-c2nc(C(=O)NC(C)C)cs2)c1` [Example 1646], the IC50 was above 1 µM.

As to `COc1ccccc1CCNCc1nc(-c2ccc(F)cc2)c(-c2nc(C(=O)NC(C)C)cs2)o1` [Example 1146], the IC50 is above 1 µM.

With `Cc1nc(-c2ccc(F)cc2)c(-c2nc(C(=O)N(C)Cc3cccc4ccccc34)cs2)s1` [Example 1934], the IC50 is above 1 µM.

The compound `O=C(NC1CCCC1)c1csc(-c2c(-c3ccc(F)cc3)ncn2C2CCNCC2)n1` [Example 2190, 2-|5-(4-Fluoro-phenyl)-3-piperidin-4-yl-3H-imidazol-4-yl|-thiazole-4-carboxylic acid cyclopentylamide] registered a half-inhibitory concentration (IC50) of at most 1 µM.

`Cc1nc(-c2ccc(F)cc2)c(-c2nc(C(=O)Nc3ccccc3COc3ccccc3)cs2)s1` [Example 2019] came in with a concentration for half-maximal inhibition (IC50) above 1 µM.

Regarding `CC(C)NC(=O)c1csc(-c2c(-c3ccc(F)cc3)noc2CNC2CCN(Cc3ccccc3)CC2)n1` [Example 1501], the half-inhibitory concentration (IC50) was above 1 µM.

Compound `Cc1nc(-c2ccc(F)cc2)c(-c2nc(C(=O)NCCN(C)C)cs2)s1` [Example 1726] displayed an IC50 above 1 µM.

As to `COc1ccncc1NCc1nc(-c2ccc(F)cc2)c(-c2nc(C(=O)NC(C)C)cs2)o1` [Example 1327], the IC50 was above 1 µM.

Compound `COc1cccc(C(=O)N2CCC(c3[nH]nc(-c4ccc(F)cc4)c3-c3nc(C(=O)NC(C)C)cs3)CC2)c1OC` [Example 942] came in with an IC50 above 1 µM.

In turn, `CCOc1ccccc1NCc1onc(-c2ccc(F)cc2)c1-c1nc(C(=O)NC(C)C)cs1` [Example 1665] had a 50% inhibitory concentration (IC50) above 1 µM.

In turn, `CCOC(=O)CC(C)NCc1onc(-c2ccc(F)cc2)c1-c1nc(C(=O)NC(C)C)cs1` (centres unmarked) [Example 1442] gave a half-maximal inhibitory concentration (IC50) above 1 µM.

Compound `CCOC(=O)C1CCN(Cc2nc(-c3ccc(F)cc3)c(-c3nc(C(=O)NC(C)C)cs3)o2)CC1` [Example 1237] yielded a half-maximal inhibitory concentration (IC50) above 1 µM.

With `CC(C)NC(=O)c1csc(-c2oc(CNCCc3ccccc3Cl)nc2-c2ccc(F)cc2)n1` [Example 1149], the IC50 is above 1 µM.

Turning to `CCC(C)CNC(=O)c1csc(-c2c(-c3ccc(F)cc3)n[nH]c2C2CCNCC2)n1` (centres unmarked) [Example 2046], the concentration for half-maximal inhibition (IC50) is above 1 µM.

Compound `COc1cccc(NCc2nc(-c3ccc(F)cc3)c(-c3nc(C(=O)NC(C)C)cs3)o2)c1` [Example 1324] had an IC50 above 1 µM.

In turn, `Cc1cc(C(=O)N2CCC(c3[nH]nc(-c4ccc(F)cc4)c3-c3nc(C(=O)NC(C)C)cs3)CC2)ccc1Br` [Example 1006] had an IC50 above 1 µM.

As for `CC(C)NC(=O)c1csc(-c2c(-c3ccc(F)cc3)noc2CN2CCN(c3ccc(C(F)(F)F)cc3)CC2)n1` [Example 1622], the IC50 is above 1 µM.

`CC(C)NC(=O)c1csc(-c2c(-c3ccc(F)cc3)noc2CNc2ccc3c(c2)OCO3)n1` [Example 1662] gave an IC50 above 1 µM.

`CC(C)NC(=O)c1csc(-c2oc(CN(CCN(C)C)Cc3ccccc3)nc2-c2ccc(F)cc2)n1` [Example 1252] had a concentration for half-maximal inhibition (IC50) above 1 µM.

As for `CNCc1nc(-c2ccc(F)cc2)c(-c2nc(C(=O)NC(C)C)cs2)o1` [Example 1049], the IC50 was above 1 µM.

With `O=C(NCc1ccc(F)cc1F)c1csc(-c2c(-c3ccc(F)cc3)n[nH]c2C2CCNCC2)n1` [Example 2111], the IC50 was above 1 µM.

In the case of `O=C(NCc1ccccc1OC(F)(F)F)c1csc(-c2c(-c3ccc(F)cc3)n[nH]c2C2CCNCC2)n1` [Example 2152], the IC50 is above 1 µM.

Compound `NS(=O)(=O)c1ccc(CCNC(=O)c2csc(-c3c(-c4ccc(F)cc4)n[nH]c3C3CCNCC3)n2)cc1` [Example 2153] gave a 50% inhibitory concentration (IC50) above 1 µM.

`CC(C)NC(=O)c1csc(-c2c(-c3ccc(F)cc3)noc2CNc2ccc3c(c2)CCC3)n1` [Example 1656] registered an IC50 above 1 µM.

On to `CC(C)NC(=O)c1csc(-c2c(-c3ccc(F)cc3)n[nH]c2C2CCN(C(=O)C3CN(C(=O)OC(C)(C)C)CCN3)CC2)n1` (centres unmarked) [Example 1028], for which the concentration for half-maximal inhibition (IC50) was above 1 µM.

As for `Cc1ccc(CNCc2nc(-c3ccc(F)cc3)c(-c3nc(C(=O)NC(C)C)cs3)o2)cc1C` [Example 1120], the half-maximal inhibitory concentration (IC50) is above 1 µM.

Take `Cc1nc(-c2ccc(F)cc2)c(-c2nc(C(=O)Nc3c(C)cccc3C(C)(C)C)cs2)s1` [Example 2008]: the IC50 was at most 1 µM.

The compound `CC(C)NC(=O)c1csc(-c2c(-c3ccc(F)cc3)noc2CNCc2cccs2)n1` [Example 1419] registered an IC50 above 1 µM.

For the compound `COc1ccc(CNC(=O)c2csc(-c3c(-c4ccc(F)cc4)n[nH]c3C3CCNCC3)n2)cc1` [Example 2102], the concentration for half-maximal inhibition (IC50) is at most 1 µM.

Turning to `CCC(C(=O)N1CCC(c2[nH]nc(-c3ccc(F)cc3)c2-c2nc(C(=O)NC(C)C)cs2)CC1)c1ccccc1` (centres unmarked) [Example 888], the IC50 was above 1 µM.
